Source: ChEMBL document CHEMBL1147956 (Bioorg Med Chem Lett, 2007)

Molecular target: T1, Inhibitor of nuclear factor kappa-B kinase subunit beta (Homo sapiens, UniProt O14920)
T1 sequence (O14920 whole entry): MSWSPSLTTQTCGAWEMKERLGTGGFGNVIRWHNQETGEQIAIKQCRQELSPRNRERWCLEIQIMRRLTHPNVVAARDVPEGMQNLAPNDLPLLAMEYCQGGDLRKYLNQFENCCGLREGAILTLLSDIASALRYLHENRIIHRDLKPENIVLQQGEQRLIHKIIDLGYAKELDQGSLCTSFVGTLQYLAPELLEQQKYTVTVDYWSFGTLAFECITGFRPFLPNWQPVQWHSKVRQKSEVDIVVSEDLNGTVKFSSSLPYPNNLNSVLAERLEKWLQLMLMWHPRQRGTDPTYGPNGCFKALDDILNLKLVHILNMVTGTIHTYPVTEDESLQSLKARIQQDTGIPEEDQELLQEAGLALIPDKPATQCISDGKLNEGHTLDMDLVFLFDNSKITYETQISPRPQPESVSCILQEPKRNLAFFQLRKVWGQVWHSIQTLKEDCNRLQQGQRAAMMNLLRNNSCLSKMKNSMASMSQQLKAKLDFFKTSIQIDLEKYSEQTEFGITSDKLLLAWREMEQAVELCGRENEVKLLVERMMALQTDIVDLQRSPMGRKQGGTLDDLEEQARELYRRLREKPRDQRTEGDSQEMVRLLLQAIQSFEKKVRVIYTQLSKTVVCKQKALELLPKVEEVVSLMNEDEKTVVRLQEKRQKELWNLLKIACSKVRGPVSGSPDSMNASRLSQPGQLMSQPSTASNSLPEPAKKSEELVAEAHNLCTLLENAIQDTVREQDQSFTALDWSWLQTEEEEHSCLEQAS
Test: Inhibition of IKK-beta after 30 mins

Structure (SMILES): Cc1cc(-c2c3ccccc3c(Br)c3sc(C)c(C)c23)cc(C)c1O[C@H](Cc1ccccc1)C(=O)O [ERTIPROTAFIB]
- IC50: 0.4 µM
